Entries after “also recorded” stand apart in the source; their conditions may differ. Read-outs that look alike come from different tables or passages of the source.
Experiments:
in vivo = conditions: mouse, Swiss mice, read-out: DL50 (the source's name)
Description: For this study Swiss mice, both male and female, have been utilized: during the experiment, the animals are fed according to the method with Altromin in the form of tablets. For the oral and intraperitoneal administration, there are used 5% gum arabic solutions while saline solutions of pH 4 are used for the intravenous injections.
The preliminary values of DL50 are calculated according to a graphic method.

[1] = for product Ca++ × Pi in solution after incubation: 37° C., two days, control 29, prior to incubation 114.7
Description: A model system is used to evaluate the ability of the phosphonates to inhibit the formation of crystals in inorganic solutions. Three solutions are prepared according to Fleisch.
The pH is brought to 7.4 by means of potassium hydroxide. The concentration of Ca^++ was 6.7 mg%, a level similar to the calcium in blood which has been subjected to untrafiltration and the concentration of the inorganic phosphate Pi give a product Ca^++ ×Pi=80. The solution was analyzed for Ca^++ and Pi and was distributed in Erlenmeyer flasks 12 cc each. The flasks were divided in groups as follows:
and then they are incubated under stirring at 37° C. for two days.
At the end of incubation, the solutions are passed through "millipore filters" for the purpose of retaining the ctystals which are formed during the incubation; the filtrate then is analyzed for Ca^++ and Pi. The results are also reported in Table 2 as the product of Ca^++ x Pi in the solution at the end of the experiment.

skull cells = test: cells; format: cell-based, Wistar rats; conditions: for activity at 2.5 µM / activity at 25 µM / activity at 250 µM: Rattus norvegicus, read-out: Effect on the cellular number ± S.E.M.
Description: (§1) Cellular culture: the cells are cultured according to the method described by Fast et al, (Biochem. J. 172, 97-107 (1978)). By way of summary, the skulls removed from Wistar rats, one day old, are digested with collagenase. The cells set free are placed on a plate with concentration of 200,000 cells per cc of medium in disks "clusters" suitable for culture, the plates having 24 wells of 1.6 cm in diameter containing 0.5 cc of medium. The cells are cultivated in the essential minimum medium containing 10% of foetal calf serum in an atmosphere of 5% CO2 at 37° up to the eighth day. The bisphosphonates are added on the first day up to the end of the experiment. The medium is changed on the first, fourth and seventh day.
The cells are counted with a Coulter counter after they have been set free from the disks by digestion with a mixture of collagenase and trypsin.

[2] = tested on: skull cells (lactate production); test: cells; format: cell-based, Wistar rats; conditions: for activity at 2.5 µM / activity at 25 µM / activity at 250 µM: Rattus norvegicus, 16 h, read-out: Effect on the production of lactate ± S.E.M.
Description: as §1
On the seventh day, the medium is changed and the cells are incubated for 16 hours. The lactate produced during this period is measured in an extract in HClO4 of the medium using lactatodehydrogenase.

[3] = tested on: bone reabsorption and mineralization (tibia, trabecular metaphysis); format: in vivo, Wistar rats; conditions: for effect on mineralization, in words: 10 mg of P/kg / high dosage where stated; for effect on bone reabsorption, in words: rat, in vivo
Description: Groups of five Wistar rats of weight 180-200 grams are treated for a period of seven days with 0.1, 1.0 and 10 mg of P/kg of the following biphosphonic acids:
The animals kept as a control were administered the solvent with NaCl. All the treatments were carried out by the subcutaneous route. […] The animals were fed with Altromine 1314 containing 1.1 g/100 g P and 250 IU/100 g of vitamin D3. On the eighth day, the animals were killed and the tibia was removed and fixed in 50% ethanol. The tibiae were then dehydrated in increasing concentration of ethanol and allowed to soak in methylmethacrylate after the addition of Plastoid N. Frontal sections were removed and cut to a thickness of 70-80 μm and then the sections were submitted to microradiography. This procedure permitted to evaluate the density of the mineral in the trabecular metaphysis according to the method of Shenk et al., Calc. Tiss. Res. 11, 196-214, 1973).
One animal per group has been evaluated.

[4] = tested on: bone reabsorption (metaphyseal bone density); test: Metaphyseal bone density / inhibition of bone reabsorption in rats treated for 7 days; format: in vivo; conditions: 7 days, rats
injection sites / skin = test: Necrosis at the injection sites in rats (local skin toxicity)
Description: The symbol "x" represents a conventional score, that is "x" meand slight necrosis, "xx" means severe necrosis, "xxx" means very severe necrosis.

[5] = 0.1 mg P/kg s.c., s.c. NaCl controls 29.72
[6] = 1.0 mg P/kg s.c., s.c. NaCl controls 29.72
[7] = 2.0 mg P/kg p.o., p.o. NaCl controls 28.45

## NCCCCCC(O)(P(=O)(O)O)P(=O)(O)O [AHEX BP, 6-amino-1-hydroxyhexane-1,1-biphosphonic acid]
In vivo; ip
  LD50: 125 mg/kg
In vivo; iv
  LD50: 75 mg/kg
In vivo; po, os
  LD50: > 2000 mg/kg
[1]; 0.05 μM
  product Ca++ × Pi in solution after incubation: 30.0
[1]; 0.25 μM
  product Ca++ × Pi in solution after incubation: 37.5
[1]; 0.5 μM
  product Ca++ × Pi in solution after incubation: 59.6
[1]; 2.5 μM
  product Ca++ × Pi in solution after incubation: 92.6
[1]; 5.0 μM
  product Ca++ × Pi in solution after incubation: 95.3
Skull cells; 2.5 μM
  activity at 2.5 µM: 93.3 ± 3%
Skull cells; 25 μM
  activity at 25 µM: 95.2 ± 2.2%
Skull cells; 250 μM
  activity at 250 µM: 87 ± 3.4%
[2]; 2.5 μM
  activity at 2.5 µM: 109 ± 6%
[2]; 25 μM
  activity at 25 µM: 108 ± 4.5%
[2]; 250 μM
  activity at 250 µM: 165 ± 7.7%
[3]
  effect on mineralization, in words: strong inhibition of mineralization; also recorded: exhibits high inhibition
  effect on bone reabsorption, in words: active on the reabsorption with a result slightly superior to Cl2 MBP
[4]; 0.01 mg P/kg s.c., s.c. NaCl controls 29.72
  metaphysical density: 38.12 % volume of calcified tissue
[4]; [5]
  metaphysical density: 46.96 % volume of calcified tissue
[4]; [6]
  metaphysical density: 54.93 % volume of calcified tissue
[4]; [7]
  metaphysical density: 34.69 % volume of calcified tissue
Injection sites / skin; 0.01 mg P/kg, 1 day
  necrosis at the injection sites: .0.
Injection sites / skin; 0.01 mg P/kg, 2 day
  necrosis at the injection sites: .0.
Injection sites / skin; 0.01 mg P/kg, 3 day
  necrosis at the injection sites: .0.
Injection sites / skin; 0.01 mg P/kg, 4 day
  necrosis at the injection sites: .0.
Injection sites / skin; 0.01 mg P/kg, 5 day
  necrosis at the injection sites: .0.
Injection sites / skin; 0.01 mg P/kg, 6 day
  necrosis at the injection sites: .0.
Injection sites / skin; 0.01 mg P/kg, 7 day
  necrosis at the injection sites: .0.
Injection sites / skin; 0.1 mg P/kg, 1 day
  necrosis at the injection sites: .0.
Injection sites / skin; 0.1 mg P/kg, 2 day
  necrosis at the injection sites: .0.
Injection sites / skin; 0.1 mg P/kg, 3 day
  necrosis at the injection sites: .0.
Injection sites / skin; 0.1 mg P/kg, 4 day
  necrosis at the injection sites: .0.
Injection sites / skin; 0.1 mg P/kg, 5 day
  necrosis at the injection sites: .0.
Injection sites / skin; 0.1 mg P/kg, 6 day
  necrosis at the injection sites: .0.
Injection sites / skin; 0.1 mg P/kg, 7 day
  necrosis at the injection sites: .0.
Injection sites / skin; 1 mg P/kg, 1 day
  necrosis at the injection sites: .0.
Injection sites / skin; 1 mg P/kg, 2 day
  necrosis at the injection sites: .0.
Injection sites / skin; 1 mg P/kg, 3 day
  necrosis at the injection sites: .0.
Injection sites / skin; 1 mg P/kg, 4 day
  necrosis at the injection sites: .0.
Injection sites / skin; 1 mg P/kg, 5 day
  necrosis at the injection sites: .0.
Injection sites / skin; 1 mg P/kg, 6 day
  necrosis at the injection sites: .0.
Injection sites / skin; 1 mg P/kg, 7 day
  necrosis at the injection sites: .0.
Injection sites / skin; 10 mg P/kg, 1 day
  necrosis at the injection sites: .0.
Injection sites / skin; 10 mg P/kg, 2 day
  necrosis at the injection sites: .0.
Injection sites / skin; 10 mg P/kg, 5 day
  necrosis at the injection sites: xxx
Injection sites / skin; 10 mg P/kg, 6 day
  necrosis at the injection sites: xxx
Injection sites / skin; 10 mg P/kg, 7 day
  necrosis at the injection sites: xxx
Injection sites / skin; 10 mg P/kg, 8 day
  death of animals: animals died spontaneously

## O=P(O)(O)C(F)(F)P(=O)(O)O [F2 MBP, difluoromethanebiphosphonic acid]
In vivo; ip
  LD50: 450 mg/kg
In vivo; iv
  LD50: 70 mg/kg
In vivo; po, os
  LD50: > 2000 mg/kg
[1]; 0.5 μM
  product Ca++ × Pi in solution after incubation: 44.6
[1]; 2.5 μM
  product Ca++ × Pi in solution after incubation: 58.5
[1]; 5.0 μM
  product Ca++ × Pi in solution after incubation: 72.0
[1]; in vitro
  inhibitory activity on the formation and growth of crystals of apatite: inhibits the growth in vitro of the crystals of apatite
Skull cells
  effect on the number of cells, in words: no effect or a very small effect
  activity at 2.5 µM: 88.1 ± 1.4%
  activity at 25 µM: 92.4 ± 1.9%
  activity at 250 µM: 99.3 ± 2%
[2]
  effect on the production of lactate, in words: no effect
  activity at 2.5 µM: 112 ± 4.4%
  activity at 25 µM: 106 ± 3.9%
  activity at 250 µM: 99.7 ± 4.7%
[3]
  effect on mineralization, in words: no effect on the bone reabsorption or on the bone mineralization
  effect on bone reabsorption, in words: no effect on the bone reabsorption

## O=P(O)(O)C(Cl)(Cl)P(=O)(O)O [Cl2 MBP, dichloromethanebiphosphonic acid]
In vivo; ip
  LD50: 750 mg/kg
In vivo; iv
  LD50: 130 mg/kg
In vivo; po, os
  LD50: > 2000 mg/kg
[1]; 0.5 μM
  product Ca++ × Pi in solution after incubation: 44.0
[1]; 2.5 μM
  product Ca++ × Pi in solution after incubation: 60.4
[1]; 5.0 μM
  product Ca++ × Pi in solution after incubation: 73.6
Skull cells
  effect on the number of cells, in words: causes a decrease in the number of cells
Skull cells; 2.5 μM
  activity at 2.5 µM: 103 ± 0.7%
Skull cells; 25 μM
  activity at 25 µM: 86.4 ± 2.1%
Skull cells; 250 μM
  activity at 250 µM: 54.5 ± 1.9%
[2]
  effect on the production of lactate, in words: diminishes it
[2]; 2.5 μM
  activity at 2.5 µM: 87.5 ± 4%
[2]; 25 μM
  activity at 25 µM: 67.1 ± 2.8%
[2]; 250 μM
  activity at 250 µM: 16.9 ± 2.2%
[4]; [5]
  metaphysical density: 38.21 % volume of calcified tissue
[4]; [6]
  metaphysical density: 47.00 % volume of calcified tissue
[4]; [7]
  metaphysical density: 31.20 % volume of calcified tissue
[4]; 10.0 mg P/kg s.c., s.c. NaCl controls 29.72
  metaphysical density: 52.65 % volume of calcified tissue
